Data reported in patent US20240327463A1, “ANTIBACTERIAL PRODUCTS” (priority 2017, published 2024).
≈ marks a conversion by molar mass, not a printed value. Bridge positions count the residues as written; N and C are the ends. Square brackets hold non-standard residues; d marks the D form. Peptide text beside a SMILES is read from it. * marks the point of attachment. ξ: configuration not given here. dNMeF = CN[C@H](Cc1ccccc1)C(=O)O; Ile(3ξ) = CCC(C)[C@H](N)C(=O)O; X2 = O=C(CCCCCN1CNC(=S)NC1)*; X3 = O=C(CCCN1CNC(=S)NC1)*; X4 = O=C(CN1CNC(=S)NC1)*; X1 = NCC(CN)OC(=O)*

Tests used:
MRSA ATCC 33591 = test system: MRSA ATCC 33591
How it was run: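 Peptides were dissolved in DMSO and serially diluted twofold in Mueller Hinton broth from a top concentration of 512 μg/ml. Bacteria were grown in the same broth, and plates were incubated at 37° C for 24 hours. MIC was the lowest concentration showing no visible growth, done three times.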

Mycobacterium smegmatis = assay type: cell-based
Description: (§1) Bacteria were grown on Mueller Hinton broth (oxoid). All incubations were at 37° C. Dilutions were carried out using Mueller Hinton. […] This process was repeated up to well 11. […] This was repeated three times. […] Results are tabulated in the Examples.

S. aureus ATCC 25923 = assay type: cell-based, Staphylococcus aureus
Description: as §1

VRE 1004 = assay type: cell-based, Enterococcus faecalis
Description: as §1

VRE 1002 = assay type: cell-based, Enterococcus faecalis
Description: as §1

VRE 1001 = assay type: cell-based, Enterococcus faecalis
Description: as §1

VRE 1008 = assay type: cell-based, Enterococcus faecalis
Description: as §1

MRSA 1003 = assay type: cell-based, Staphylococcus aureus
Description: as §1

VRE ATCC 700802 = experiment: microbe, parasite or virus in culture; conditions: ATCC 700802
Description: (§2) For MIC testing all peptides were dissolved in DMSO (according to the method of L. L. Ling, et al., Nature 2015, 517, 455-459). Bacteria were grown on Mueller Hinton broth (oxoid). All incubations were at 37° C. Dilutions were carried out using Mueller Hinton. 100 μl of autoclaved Mueller Hinton broth was added to wells 2-12 on a 96-well plate. 200 μl of the peptide was added to well one at a concentration of 512 μg/ml. 100 μl of peptide in well one was taken up and pipetted into well two. The mixture was then mixed via pipetting before 100 μl was taken up and pipetted into well three. This process was repeated up to well 11. […] This was repeated three times. The 96-well plates were then incubated for 24 hours. The MIC was determined to be the lowest concentration at which there was no growth visible.

VRE ATCC 29212 = experiment: microbe, parasite or virus in culture; conditions: ATCC 29212
Description: as §2

[1] = test system: Staphylococcus aureus ATCC 29213; experiment: microbe, parasite or virus in culture; conditions: ATCC 29213
Description: as §2

MRSA DM21455 (eye) = experiment: microbe, parasite or virus in culture; conditions: DM21455 (eye)
Description: as §2

MRSA DR 42412 (sputum) = experiment: microbe, parasite or virus in culture; conditions: DR 42412 (sputum)
Description: as §2

MRSA ATCC 700699 = experiment: microbe, parasite or virus in culture; conditions: ATCC 700699
Description: as §2

[2] = test system: Staphylococcus saprophyticus ATCC BAA 750; assay type: cell-based; conditions: ATCC BAA 750
Description: as §1

[3] = test system: Bacillus Cereus ATCC 11788; assay type: cell-based
Description: as §1

[4] = test system: Bacillus Subtilis ATCC 6633; assay type: cell-based
Description: as §1

[5] = test system: Staphylococcus saprophyticus ATCC 49907; assay type: cell-based; conditions: ATCC 49907
Description: as §1

SA4299 = assay type: cell-based; conditions: Table 11
Description: as §1

[6] = test system: Staphylococcus saprophyticus ATCC 49453; assay type: cell-based; conditions: ATCC 49453
Description: as §1

SE12228 = assay type: cell-based
Description: as §1

[7] = test system: Staphylococcus saprophyticus ATCC 15305; assay type: cell-based; conditions: ATCC 15305
Description: as §1

[8] = test system: human lung epithelial cell line A549; experiment: Cytotoxicity in A549 cells (MTS assay, high content imaging); conditions: A549; 24 h
Description: (§3) It was important to evaluate the cytotoxicity of Compound 26 on mammalian cells prior to in vivo studies. The cytotoxicity of Compound 26 in human lung epithelial cell line A549 and primary dermal fibroblasts (hDFs) was determined. Both of these cell culture models are already established for evaluation of cytotoxicity of antimicrobial peptides.
(§4) The stock solution of Compound 26 (500 μg/ml) was prepared fresh by directly dissolving Compound 26 in cell culture medium and used. Cells were treated with dimethyl sulfoxide (DMSO, 0.1% v/v) or nocodazole (5 μg/ml dissolved in DMSO) as controls. At the end of the treatment period, metabolic activities of cells were quantified by MTS-based cell viability assay. […] After 24 h treatment with Compound 26, A549 cells (c) and hDFs (d) were fixed, fluorescently stained with rhodamine-phalloidin (red), alexa fluor 488 conjugated anti-α-tubulin (green) and Hoechst 33342 (blue) and imaged using IN Cell Analyzer 2200 automated microscope. Representative images of cells treated with Compound 26 (62.5 μg/ml for 24 h) or nocodazole (10 μg/ml, toxicity control) are shown in FIG. 2 c,d.

[9] = test system: human primary dermal fibroblasts (hDFs); experiment: Cytotoxicity in primary dermal fibroblasts (MTS assay, high content imaging); conditions: hDFs; 24 h
Description: as §3, §4

| Structure (SMILES) | MIC against S. aureus ATCC 25923 (S. aureus ATCC 25923) [µg/mL] | MIC (VRE 1004) [µg/mL] | MIC (VRE 1002) [µg/mL] | MIC (VRE 1001) [µg/mL] | MIC (VRE 1008) [µg/mL] | MIC (MRSA 1003) [µg/mL] | MIC (VRE ATCC 700802) [µg/mL] | MIC (VRE ATCC 29212) [µg/mL] | MIC [1] [µg/mL] | MIC (MRSA DM21455 (eye)) [µg/mL] | MIC (MRSA DR 42412 (sputum)) [µg/mL] | MIC (MRSA ATCC 700699) [µg/mL] | MIC [2] [µg/mL] | MIC [3] [µg/mL] | MIC [4] [µg/mL] | MIC [5] [µg/mL] | MIC (SA4299) [µg/mL] | MIC [6] [µg/mL] | MIC (SE12228) [µg/mL] | MIC [7] [µg/mL] | also measured |
| --- | --- | --- | --- | --- | --- | --- | --- | --- | --- | --- | --- | --- | --- | --- | --- | --- | --- | --- | --- | --- | --- |
| CC[C@@H](C)[C@@H](NC(=O)[C@@H](CCC(N)=O)NC(=O)[C@H](CO)NC(=O)[C@@H](NC(=O)[C@@H](Cc1ccccc1)NC)[C@@H](C)CC)C(=O)N[C@H](C(=O)N[C@@H](CO)C(=O)N[C@H]1C(=O)N[C@@H](C)C(=O)N[C@@H](CCCCNC(=O)OC(CN)CN)C(=O)N[C@@H]([C@@H](C)CC)C(=O)O[C@H]1C)[C@@H](C)CC [Compound 21, Diamino10-Teixobactin] (H-[dNMeF]IS[dQ][dI]IS[dT]AK(X1)I; ester 8-C) | – | – | – | – | – | – | – | – | – | – | – | – | – | – | – | – | – | – | – | – | MIC (MRSA*) (MRSA ATCC 33591; ATCC 33591): 0.25 µg/mL (≈ 0.188 µM); MIC (μg/mL) Mycobacterium smegmatis (Mycobacterium smegmatis): 0.5 µg/mL (≈ 0.375 µM) |
| CC[C@@H](C)[C@@H](NC(=O)[C@@H](CCC(N)=O)NC(=O)[C@H](CO)NC(=O)[C@@H](NC(=O)[C@@H](Cc1ccccc1)NC)[C@@H](C)CC)C(=O)N[C@H](C(=O)N[C@@H](CO)C(=O)N[C@H]1C(=O)N[C@@H](C)C(=O)N[C@@H](CCCCNC(=O)CN2CNC(=S)NC2)C(=O)N[C@@H]([C@@H](C)CC)C(=O)O[C@H]1C)[C@@H](C)CC [Compound 22, Gly-thiourea-Lys10-teixobactin] (H-[dNMeF]IS[dQ][dI]IS[dT]AK(X4)I; ester 8-C) | 2 (≈ 1.46 µM) | – | – | – | – | – | – | – | – | – | – | – | – | – | – | – | – | – | – | – | – |
| CC[C@@H](C)[C@@H](NC(=O)[C@@H](CCC(N)=O)NC(=O)[C@H](CO)NC(=O)[C@@H](NC(=O)[C@@H](Cc1ccccc1)NC)[C@@H](C)CC)C(=O)N[C@H](C(=O)N[C@@H](CO)C(=O)N[C@H]1C(=O)N[C@@H](C)C(=O)N[C@@H](CCCCNC(=O)CCCN2CNC(=S)NC2)C(=O)N[C@@H]([C@@H](C)CC)C(=O)O[C@H]1C)[C@@H](C)CC [Compound 23, GABA-thiourea-Lys10-teixobactin] (H-[dNMeF]IS[dQ][dI]IS[dT]AK(X3)I; ester 8-C) | 2 (≈ 1.43 µM) | – | – | – | – | – | – | – | – | – | – | – | – | – | – | – | – | – | – | – | – |
| CC[C@@H](C)[C@@H](NC(=O)[C@@H](CCC(N)=O)NC(=O)[C@H](CO)NC(=O)[C@@H](NC(=O)[C@@H](Cc1ccccc1)NC)[C@@H](C)CC)C(=O)N[C@H](C(=O)N[C@@H](CO)C(=O)N[C@H]1C(=O)N[C@@H](C)C(=O)N[C@@H](CCCCNC(=O)CCCCCN2CNC(=S)NC2)C(=O)N[C@@H]([C@@H](C)CC)C(=O)O[C@H]1C)[C@@H](C)CC [Compound 24, Ahx-thiourea-Lys10-teixobactin] (H-[dNMeF]IS[dQ][dI]IS[dT]AK(X2)I; ester 8-C) | 2 (≈ 1.4 µM) | – | – | – | – | – | – | – | – | – | – | – | – | – | – | – | – | – | – | – | – |
| CC[C@@H](C)[C@@H](NC(=O)[C@@H](CCCNC(=N)N)NC(=O)[C@H](CCCNC(=N)N)NC(=O)[C@@H](NC(=O)[C@@H](Cc1ccccc1)NC)[C@@H](C)CC)C(=O)N[C@H](C(=O)N[C@@H](CO)C(=O)N[C@H]1C(=O)N[C@@H](C)C(=O)N[C@@H](CC(C)C)C(=O)N[C@@H]([C@@H](C)CC)C(=O)O[C@H]1C)[C@@H](C)CC [Compound 28, Arg3-D-Arg4-Leu10-teixobactin] (H-[dNMeF]IR[dR][dI]IS[dT]ALI; ester 8-C) | – | 0.5 (≈ 0.385 µM) | 1 (≈ 0.77 µM) | 1 (≈ 0.77 µM) | 0.5 (≈ 0.385 µM) | 1 (≈ 0.77 µM) | 2 (≈ 1.54 µM) | 1 (≈ 0.77 µM) | 0.25 (≈ 0.193 µM) | 0.5 (≈ 0.385 µM) | 0.25 (≈ 0.193 µM) | 0.5 (≈ 0.385 µM) | <0.0625 | 1 (≈ 0.77 µM) | <0.0625 | <0.0625 | 0.25 (≈ 0.193 µM) | <0.0625 | <0.0625 | <0.0625 | MIC against MRSA ATCC 33591 (MRSA ATCC 33591): 0.25 µg/mL (≈ 0.193 µM) |
| CC[C@@H](C)[C@@H](NC(=O)[C@@H](CCCNC(=N)N)NC(=O)[C@H](CO)NC(=O)[C@@H](NC(=O)[C@@H](Cc1ccccc1)NC)[C@@H](C)CC)C(=O)N[C@H](C(=O)N[C@@H](CO)C(=O)N[C@H]1C(=O)N[C@@H](CCCNC(=N)N)C(=O)N[C@@H](CC(C)C)C(=O)N[C@@H]([C@@H](C)CC)C(=O)O[C@H]1C)[C@@H](C)CC [Compound 30, D-Arg4-Arg9-Leu10-teixobactin] (H-[dNMeF]IS[dR][dI]IS[dT]RLI; ester 8-C) | – | 1 (≈ 0.761 µM) | 1 (≈ 0.761 µM) | 1 (≈ 0.761 µM) | 1 (≈ 0.761 µM) | 0.5 (≈ 0.38 µM) | 1 (≈ 0.761 µM) | 1 (≈ 0.761 µM) | 1 (≈ 0.761 µM) | 1 (≈ 0.761 µM) | 1 (≈ 0.761 µM) | 1 (≈ 0.761 µM) | <0.0625 | 1 (≈ 0.761 µM) | <0.0625 | <0.0625 | 0.5 (≈ 0.38 µM) | <0.0625 | <0.0625 | <0.0625 | MIC against MRSA ATCC 33591 (MRSA ATCC 33591): 1 µg/mL (≈ 0.761 µM) |
| CCC(C)[C@@H]1NC(=O)[C@H](CCCNC(=N)N)NC(=O)[C@H](NC(=O)[C@H](CO)NC(=O)[C@@H](NC(=O)[C@H](NC(=O)[C@@H](CCC(N)=O)NC(=O)[C@H](CO)NC(=O)[C@@H](NC(=O)[C@@H](Cc2ccccc2)NC)[C@@H](C)CC)[C@H](C)CC)[C@@H](C)CC)[C@H](C)OC(=O)[C@H]([C@@H](C)CC)NC1=O (stereo partly shown) [Compound 34, Arg9-Ile10-teixobactin] (H-[dNMeF]IS[dQ][dI]IS[dT]R[Ile(3ξ)]I; ester 8-C) | – | 1 (≈ 0.777 µM) | 1 (≈ 0.777 µM) | 1 (≈ 0.777 µM) | 1 (≈ 0.777 µM) | 0.5 (≈ 0.389 µM) | 1 (≈ 0.777 µM) | 1 (≈ 0.777 µM) | 1 (≈ 0.777 µM) | 0.5 (≈ 0.389 µM) | 0.125 (≈ 0.0972 µM) | 1 (≈ 0.777 µM) | <0.0625 | 0.5 (≈ 0.389 µM) | 0.125 (≈ 0.0972 µM) | <0.0625 | 1 (≈ 0.777 µM) | <0.0625 | <0.0625 | <0.0625 | MIC (MRSA) (MRSA ATCC 33591; ATCC 33591): 0.25 µg/mL (≈ 0.194 µM) |
| COC(=O)Nc1nc2ccc(C(=O)c3cccs3)cc2[nH]1 [nocodazole, reference compound] | – | – | – | – | – | – | – | – | – | – | – | – | – | – | – | – | – | – | – | – | cell morphology, high content images [8]: substantial loss of adhered cells; cell morphology, high content images [9]: substantial loss of adhered cells |
